Consider 13 molecules from PubChem BioAssay (NCI).

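Five compound concentrations were applied to cells in 96-well plates for 48 hours; endpoints were derived by simple linear interpolation of the resulting dose-response curve. TGI: total growth inhibition.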

Test systems include HL-60(TB) leukemia; MOLT-4 leukemia; HOP-92 NSCLC; HCC-2998 colon; DLD-1 colon; T-47D breast; DU-145 prostate; MDA-MB-435; A498 renal; MCF7 breast.
Common to all, as to test: inhibition of tumour cell growth, NCI panel, 48 h

On to `CCN(CC)c1ccc(C(=C2C=CC(=[N+](CC)CC)C=C2)c2ccccc2)cc1`, for which the TGI turned out to be 0.0318 µM with HL-60(TB) leukemia; 0.0383 µM in the experiment on MOLT-4 leukemia; 0.0971 µM in the experiment with HOP-92 NSCLC; 0.135 µM with HCC-2998 colon; 0.193 µM with DLD-1 colon.

For `NC(CO)c1ccccc1` (centres undefined), the TGI in the experiment with HL-60(TB) leukemia, with MOLT-4 leukemia, with HOP-92 NSCLC, with HCC-2998 colon and in the experiment with DLD-1 colon was greater than 100 µM throughout.

Turning to `COc1ccc(C=O)cc1Oc1ccc(C[C@H]2c3c(cc(OC)c4c3Oc3cc5c(cc3O4)CCN(C)C5=O)CCN2C)cc1`, the TGI in the experiment on HL-60(TB) leukemia was 17.5 µM; with T-47D breast, greater than 50 µM; with DU-145 prostate, 25.2 µM; in the experiment with MOLT-4 leukemia it was 21.7 µM; with MDA-MB-435, 21.7 µM; with A498 renal, greater than 50 µM. The TGI in the experiment on HOP-92 NSCLC is 13.7 µM; in the experiment on MCF7 breast, 22.5 µM; in the experiment on HCC-2998 colon it was 15.1 µM.

Take `CSc1s[s+]c(SC)c1-c1ccccc1`: the TGI is 60.6 µM in the experiment on HL-60(TB) leukemia; greater than 100 µM in the experiment on T-47D breast; greater than 100 µM in the experiment on DU-145 prostate; greater than 100 µM with MOLT-4 leukemia; 36 µM in the experiment on MDA-MB-435; 47.3 µM in the experiment with A498 renal. The values for the TGI in the experiment with HOP-92 NSCLC, in the experiment on MCF7 breast and with HCC-2998 colon were 33.6 µM, 33.7 µM and 21.5 µM, respectively.

For the molecule `COC(=O)c1ccc(OCc2ccc3nc(-c4ccccc4)c(Cl)nc3c2)cc1`, the TGI in the experiment with HL-60(TB) leukemia, in the experiment on T-47D breast, with DU-145 prostate, in the experiment on MOLT-4 leukemia, with MDA-MB-435 and with A498 renal was greater than 100 µM each time. Further, the TGI with HOP-92 NSCLC, in the experiment with MCF7 breast and in the experiment with HCC-2998 colon was greater than 100 µM each time.

Take `CN(C)CCNc1nc2ccccc2c2c1C(=O)c1ccccc1-2`: the TGI in the experiment with HL-60(TB) leukemia was 0.812 µM; in the experiment with T-47D breast, 4.12 µM; in the experiment with DU-145 prostate, 1.51 µM; in the experiment with MOLT-4 leukemia it was 0.098 µM; in the experiment with MDA-MB-435, 1.12 µM; with A498 renal, 1.24 µM. The TGI in the experiment with HOP-92 NSCLC came out at 3.07 µM; in the experiment with MCF7 breast, 1.87 µM; with HCC-2998 colon it was 0.511 µM.

As to `O=C1O/C(=C\c2ccc(O)cc2)C(c2ccc(O)c(Cl)c2)=C1Br`, the TGI was 51.2 µM in the experiment on HL-60(TB) leukemia; 62.9 µM with T-47D breast; 27.6 µM in the experiment on DU-145 prostate; 49 µM with MOLT-4 leukemia; 53.2 µM in the experiment on MDA-MB-435; 34.6 µM with A498 renal. For the same molecule, the TGI in the experiment on HOP-92 NSCLC was found to be 32.1 µM; with MCF7 breast, 37.1 µM; with HCC-2998 colon, 23.6 µM.

Take `Cc1ccc(C2=Nn3c(nc4sc(-c5ccccc5)cc4c3=O)SC2)cc1`: the TGI in the experiment with HL-60(TB) leukemia, with T-47D breast, with DU-145 prostate, in the experiment on MOLT-4 leukemia, with MDA-MB-435 and in the experiment on A498 renal was greater than 100 µM in each case. The TGI in the experiment on HOP-92 NSCLC, in the experiment on MCF7 breast and in the experiment on HCC-2998 colon was greater than 100 µM each time.

On to `COC1(OC)N=C(N)C2(C#N)/C(=N/N(C)C)CC(C)C12C#N` (centres undefined), for which the TGI in the experiment on HL-60(TB) leukemia, in the experiment with T-47D breast, with DU-145 prostate, in the experiment with MOLT-4 leukemia, in the experiment on MDA-MB-435 and in the experiment with A498 renal was greater than 100 µM in each case. Moreover, the TGI with HOP-92 NSCLC, in the experiment with MCF7 breast and in the experiment on HCC-2998 colon was greater than 100 µM throughout.

For the molecule `BrCC[P+](c1ccccc1)(c1ccccc1)c1ccccc1`, the TGI in the experiment on HL-60(TB) leukemia worked out at 5.33 µM; in the experiment on T-47D breast it was 5.17 µM; in the experiment on DU-145 prostate, 19.8 µM; in the experiment with MOLT-4 leukemia, 24.3 µM; with MDA-MB-435, 10.8 µM; in the experiment on A498 renal, 41.3 µM. The TGI in the experiment on HOP-92 NSCLC came to 13.1 µM; in the experiment with MCF7 breast, 30.5 µM; in the experiment with HCC-2998 colon, 27.2 µM.

Consider `COC1=CC2(C=CC1=O)CCN=c1c(O)c3c(c(O)c12)=NC=N3` (centres undefined), for which the TGI with HL-60(TB) leukemia, with T-47D breast, in the experiment with DU-145 prostate, in the experiment with MOLT-4 leukemia, in the experiment with MDA-MB-435 and in the experiment with A498 renal was greater than 100 µM throughout. The TGI in the experiment on HOP-92 NSCLC, in the experiment on MCF7 breast and in the experiment on HCC-2998 colon was greater than 100 µM in each case.

`CSC1(SC)CCCCCCCCCCC1`: the TGI in the experiment on HL-60(TB) leukemia is greater than 100 µM; with T-47D breast, 73.3 µM; in the experiment on DU-145 prostate, greater than 100 µM; in the experiment with MOLT-4 leukemia, greater than 100 µM; with MDA-MB-435, greater than 100 µM; in the experiment on A498 renal, greater than 100 µM. In addition, the values for the TGI with HOP-92 NSCLC, with MCF7 breast and in the experiment on HCC-2998 colon were 87.5 µM, 38.1 µM and 40.5 µM, respectively.

For the molecule `O=C(O)CNC(=O)c1cccc2c(=O)c3ccccc3[nH]c12`, the TGI in the experiment on HL-60(TB) leukemia, with T-47D breast, in the experiment with DU-145 prostate, in the experiment with MOLT-4 leukemia, with MDA-MB-435 and with A498 renal was greater than 100 µM each time. Besides, the TGI in the experiment on HOP-92 NSCLC, in the experiment with MCF7 breast and in the experiment on HCC-2998 colon was greater than 100 µM throughout.
